In ChEMBL document CHEMBL2086254, “Synthesis and identification of novel indolo[2,3-a]pyrimido[5,4-c]carbazoles as a new class of anti-cancer agents” (Eur J Med Chem, 2012):
Activity calls are given as the source filed them. The rule behind the calls is not given here.

Assays:
OVCAR-8 = test: Cytotoxicity against human OVCAR8 cells assessed as cell growth at 10 uM after 48 hrs by SRB assay relative to control; assay type: functional; conditions: OVCAR-8, 48 h, read-out: Activity
K562 = test: Cytotoxicity against human K562 cells assessed as cell growth at 10 uM after 48 hrs by SRB assay relative to control; assay type: functional; conditions: K562, 48 h, read-out: Activity
UACC-62 = test: Cytotoxicity against human UACC62 cells assessed as cell growth at 10 uM after 48 hrs by SRB assay relative to control; assay type: functional; conditions: UACC-62, 48 h, read-out: Activity
SK-MEL-5 = test: Cytotoxicity against human SK-MEL-5 cells assessed as cell growth at 10 uM after 48 hrs by SRB assay relative to control; assay type: functional; conditions: SK-MEL-5, 48 h, read-out: Activity
MOLT-4 = test: Cytotoxicity against human MOLT4 cells assessed as cell growth at 10 uM after 48 hrs by SRB assay relative to control; assay type: functional; conditions: MOLT-4, 48 h, read-out: Activity
PC-3 = test: Cytotoxicity against human PC3 cells assessed as cell growth at 10 uM after 48 hrs by SRB assay relative to control; assay type: functional; conditions: PC-3, 48 h, read-out: Activity
786-0 = test: Cytotoxicity against human 786-0 cells assessed as cell growth at 10 uM after 48 hrs by SRB assay relative to control; assay type: functional; conditions: 786-0, 48 h, read-out: Activity
HCT-116 = test: Cytotoxicity against human HCT116 cells assessed as cell growth at 10 uM after 48 hrs by SRB assay relative to control; assay type: functional; conditions: HCT-116, 48 h, read-out: Activity
[1] = biological target: DNA topoisomerase 2-alpha (Homo sapiens) (UniProt P11388); test: Inhibition of human DNA topoisomerase 2 at 100 uM after 1 hr by agarose gel circular DNA decatenation assay
SK-OV-3 = test: Cytotoxicity against human SKOV3 cells assessed as cell growth at 10 uM after 48 hrs by SRB assay relative to control; assay type: functional; conditions: SK-OV-3, 48 h, read-out: Activity
EKVX = test: Cytotoxicity against human EKVX cells assessed as cell growth at 10 uM after 48 hrs by SRB assay relative to control; assay type: functional; conditions: read-out: Activity
A549 [2] = test: Cytotoxicity against human A549 cells assessed as cell growth at 10 uM after 48 hrs by SRB assay relative to control; assay type: functional; conditions: A549, 48 h, read-out: Activity
HT-29 = test: Cytotoxicity against human HT-29 cells assessed as cell growth at 10 uM after 48 hrs by SRB assay relative to control; assay type: functional; conditions: HT-29, 48 h, read-out: Activity
HL-60 = test: Cytotoxicity against human HL60 cells assessed as cell growth at 10 uM after 48 hrs by SRB assay relative to control; assay type: functional; conditions: HL-60, 48 h, read-out: Activity
OVCAR-3 [3] = test: Cytotoxicity against human OVCAR3 cells assessed as cell growth at 10 uM after 48 hrs by SRB assay relative to control; assay type: functional; conditions: OVCAR-3, 48 h, read-out: Activity
LOX IMVI = test: Cytotoxicity against human LOXIMVI cells assessed as cell growth at 10 uM after 48 hrs by SRB assay relative to control; assay type: functional; conditions: read-out: Activity
COLO 205 = test: Cytotoxicity against human COLO205 cells assessed as cell growth at 10 uM after 48 hrs by SRB assay relative to control; assay type: functional; conditions: COLO 205, 48 h, read-out: Activity
MDA-MB-231 = test: Cytotoxicity against human MDA-MB-231 cells assessed as cell growth at 10 uM after 48 hrs by SRB assay relative to control; assay type: functional; conditions: MDA-MB-231, 48 h, read-out: Activity
CAKI-1 = test: Cytotoxicity against human Caki1 cells assessed as cell growth at 10 uM after 48 hrs by SRB assay relative to control; assay type: functional; conditions: CAKI-1, 48 h, read-out: Activity
SR [4] = test: Cytotoxicity against human SR cells assessed as cell growth at 10 uM after 48 hrs by SRB assay relative to control; assay type: functional; conditions: read-out: Activity
NCI-H322M [5] = test: Cytotoxicity against human NCI-H322M cells assessed as cell growth at 10 uM after 48 hrs by SRB assay relative to control; assay type: functional; conditions: read-out: Activity
SR [6] = test: Cytotoxicity against human SR cells after 48 hrs by SRB assay; assay type: functional
T47D = test: Cytotoxicity against human T47D cells after 48 hrs by SRB assay; assay type: functional
A549 [7] = test: Cytotoxicity against human A549 cells after 48 hrs by SRB assay; assay type: functional; conditions: A549, 48 h
NCI-H322M [8] = test: Cytotoxicity against human NCI-H322M cells after 48 hrs by SRB assay; assay type: functional
NCI-H23 = test: Cytotoxicity against human NCI-H23 cells after 48 hrs by SRB assay; assay type: functional; conditions: NCI-H23, 48 h
CCRF-CEM = test: Cytotoxicity against human CCRF-CEM cells assessed as cell growth at 10 uM after 48 hrs by SRB assay relative to control; assay type: functional; conditions: read-out: Activity
U-251 = test: Cytotoxicity in human U251 cells after 48 hrs by SRB assay; assay type: functional; conditions: U-251, 48 h
SN12C = test: Cytotoxicity against human SN12C cells assessed as cell growth at 10 uM after 48 hrs by SRB assay relative to control; assay type: functional; conditions: read-out: Activity
SNB-75 = test: Cytotoxicity against human SNB75 cells after 48 hrs by SRB assay; assay type: functional; conditions: SNB-75, 48 h
MDA-MB-468 = test: Cytotoxicity against human MDA-MB-468 cells after 48 hrs by SRB assay; assay type: functional; conditions: MDA-MB-468, 48 h
NCI-H460 = test: Cytotoxicity against human NCI-H460 cells after 48 hrs by SRB assay; assay type: functional; conditions: NCI-H460, 48 h
OVCAR-3 [9] = test: Cytotoxicity against human OVCAR3 cells after 48 hrs by SRB assay; assay type: functional; conditions: OVCAR-3, 48 h
DU-145 = test: Cytotoxicity against human DU145 cells after 48 hrs by SRB assay; assay type: functional; conditions: DU-145, 48 h
[10] = read-out: LC50 (the source's name)

DNA topoisomerase 2-alpha (Homo sapiens), sequence (P11388 whole entry): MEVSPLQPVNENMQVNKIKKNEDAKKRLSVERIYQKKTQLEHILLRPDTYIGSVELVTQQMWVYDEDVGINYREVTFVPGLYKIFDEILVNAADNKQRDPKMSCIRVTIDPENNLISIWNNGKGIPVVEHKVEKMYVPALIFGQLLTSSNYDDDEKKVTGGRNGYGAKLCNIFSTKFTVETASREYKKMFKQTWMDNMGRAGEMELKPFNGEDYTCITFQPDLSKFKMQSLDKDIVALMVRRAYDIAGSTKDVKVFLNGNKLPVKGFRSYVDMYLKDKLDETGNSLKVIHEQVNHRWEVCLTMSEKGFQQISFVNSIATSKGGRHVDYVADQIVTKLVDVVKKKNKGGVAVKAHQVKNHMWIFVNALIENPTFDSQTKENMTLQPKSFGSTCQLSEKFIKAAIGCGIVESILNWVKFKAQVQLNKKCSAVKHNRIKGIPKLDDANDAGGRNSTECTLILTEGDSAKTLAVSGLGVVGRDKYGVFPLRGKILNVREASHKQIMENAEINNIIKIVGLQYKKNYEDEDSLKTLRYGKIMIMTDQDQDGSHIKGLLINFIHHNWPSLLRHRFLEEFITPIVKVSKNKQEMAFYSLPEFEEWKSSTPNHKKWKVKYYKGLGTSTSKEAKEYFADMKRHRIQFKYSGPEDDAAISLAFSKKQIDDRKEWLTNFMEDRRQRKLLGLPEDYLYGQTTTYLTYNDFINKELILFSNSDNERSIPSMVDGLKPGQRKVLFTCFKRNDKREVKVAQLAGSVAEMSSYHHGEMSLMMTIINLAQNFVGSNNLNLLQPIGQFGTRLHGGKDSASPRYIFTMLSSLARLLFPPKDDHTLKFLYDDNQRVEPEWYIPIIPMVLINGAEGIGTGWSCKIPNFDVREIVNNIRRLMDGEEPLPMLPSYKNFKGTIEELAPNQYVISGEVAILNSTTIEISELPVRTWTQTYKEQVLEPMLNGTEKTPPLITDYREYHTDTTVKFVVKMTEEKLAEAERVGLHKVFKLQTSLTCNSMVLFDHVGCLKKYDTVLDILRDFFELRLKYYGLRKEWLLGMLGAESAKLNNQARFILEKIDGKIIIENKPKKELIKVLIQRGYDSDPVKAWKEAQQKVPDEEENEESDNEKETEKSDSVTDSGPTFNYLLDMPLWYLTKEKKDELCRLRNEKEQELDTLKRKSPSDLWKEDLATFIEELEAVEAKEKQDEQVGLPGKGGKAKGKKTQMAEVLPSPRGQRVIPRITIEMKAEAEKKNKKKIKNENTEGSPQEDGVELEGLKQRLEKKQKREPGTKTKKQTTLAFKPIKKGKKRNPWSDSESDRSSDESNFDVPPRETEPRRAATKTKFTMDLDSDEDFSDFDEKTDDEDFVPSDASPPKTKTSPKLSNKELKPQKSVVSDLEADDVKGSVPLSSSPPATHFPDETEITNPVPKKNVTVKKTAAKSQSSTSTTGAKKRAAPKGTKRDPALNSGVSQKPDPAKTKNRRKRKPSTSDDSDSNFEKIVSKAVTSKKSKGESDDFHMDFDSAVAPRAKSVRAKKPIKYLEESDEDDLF

Cn1cc(-c2nc(N)[nH]c(=O)c2-c2cn(C)c3ccccc23)c2ccccc21
growth at 10 µM (OVCAR-8): 97.5%
growth at 10 µM (K562): 111%
growth at 10 µM (UACC-62): 96.1%
growth at 10 µM (SK-MEL-5): 101%
growth at 10 µM (MOLT-4): 105%
growth at 10 µM (PC-3): 89.7%
growth at 10 µM (786-0): 122%
growth at 10 µM (HCT-116): 99%
inhibition [1]: inactive
growth at 10 µM (SK-OV-3): 95.8%
growth at 10 µM (EKVX): 105%
growth at 10 µM (A549 [2]): 101%
growth at 10 µM (HT-29): 94.3%
growth at 10 µM (HL-60): 103%
growth at 10 µM (OVCAR-3 [3]): 109%
growth at 10 µM (LOX IMVI): 118%
growth at 10 µM (COLO 205): 104%
growth at 10 µM (MDA-MB-231): 105%
growth at 10 µM (CAKI-1): 94.6%
growth at 10 µM (SR [4]): 110%
growth at 10 µM (NCI-H322M [5]): 88.6%

Cn1c2ccccc2c2c3nc(N)[nH]c(=O)c3c3c4ccccc4n(C)c3c21
GI50 (SR [6]): 4.61 µM
TGI (SR [6]): 41.8 µM
CC50 (SR [6]; [10]): > 100 µM
growth at 10 µM (OVCAR-8): 43.1%
growth at 10 µM (K562): 44.4%
GI50 (T47D): 5.1 µM
TGI (T47D): > 100 µM
CC50 (T47D; [10]): > 100 µM
growth at 10 µM (UACC-62): 81.3%
GI50 (A549 [7]): 5.8 µM
TGI (A549 [7]): > 100 µM
CC50 (A549 [7]; [10]): > 100 µM
GI50 (NCI-H322M [8]): 5.3 µM
TGI (NCI-H322M [8]): > 100 µM
CC50 (NCI-H322M [8]; [10]): > 100 µM
growth at 10 µM (SK-MEL-5): 48.8%
GI50 (NCI-H23): 3.51 µM
TGI (NCI-H23): > 100 µM
CC50 (NCI-H23; [10]): > 100 µM
growth at 10 µM (MOLT-4): 53.3%
growth at 10 µM (PC-3): 59.1%
growth at 10 µM (CCRF-CEM): 35.2%
growth at 10 µM (786-0): 62.3%
GI50 (U-251): 6.38 µM
TGI (U-251): > 100 µM
CC50 (U-251; [10]): > 100 µM
growth at 10 µM (SN12C): 61.4%
growth at 10 µM (HCT-116): 34%
inhibition [1]: inactive
GI50 (SNB-75): 66.6 µM
TGI (SNB-75): > 100 µM
CC50 (SNB-75; [10]): > 100 µM
growth at 10 µM (SK-OV-3): 34.9%
growth at 10 µM (EKVX): 73.5%
growth at 10 µM (A549 [2]): 58.5%
growth at 10 µM (HT-29): 17.6%
GI50 (MDA-MB-468): 21.7 µM
TGI (MDA-MB-468): 75.1 µM
CC50 (MDA-MB-468; [10]): > 100 µM
growth at 10 µM (HL-60): 34.3%
GI50 (NCI-H460): 3.06 µM
TGI (NCI-H460): > 100 µM
CC50 (NCI-H460; [10]): > 100 µM
growth at 10 µM (OVCAR-3 [3]): 82.9%
growth at 10 µM (LOX IMVI): 60.9%
growth at 10 µM (COLO 205): 67.9%
growth at 10 µM (MDA-MB-231): 103%
GI50 (OVCAR-3 [9]): 9.07 µM
TGI (OVCAR-3 [9]): 25.6 µM
CC50 (OVCAR-3 [9]; [10]): 69.8 µM
growth at 10 µM (CAKI-1): -14.9%
growth at 10 µM (SR [4]): 64%
growth at 10 µM (NCI-H322M [5]): 32.9%
GI50 (DU-145): 8.2 µM
TGI (DU-145): > 100 µM
CC50 (DU-145; [10]): > 100 µM

Cn1cc(-c2[nH]c(=O)[nH]c(=O)c2-c2cn(C)c3ccccc23)c2ccccc21
growth at 10 µM (OVCAR-8): 98.1%
growth at 10 µM (K562): 93.8%
growth at 10 µM (UACC-62): 88.3%
growth at 10 µM (SK-MEL-5): 101%
growth at 10 µM (PC-3): 86.1%
growth at 10 µM (CCRF-CEM): 87.6%
growth at 10 µM (786-0): 111%
growth at 10 µM (SN12C): 110%
growth at 10 µM (HCT-116): 91.7%
inhibition [1]: inactive
growth at 10 µM (SK-OV-3): 96.8%
growth at 10 µM (EKVX): 68.7%
growth at 10 µM (A549 [2]): 96.9%
growth at 10 µM (OVCAR-3 [3]): 97.3%
growth at 10 µM (LOX IMVI): 104%
growth at 10 µM (COLO 205): 96.3%
growth at 10 µM (CAKI-1): 68.6%
growth at 10 µM (NCI-H322M [5]): 105%
